Data as given in publication PMC9133015 (Nature Communications, 2022).
Values joined by “and” are separate entries in the source; they are usually repeats but may differ in a detail not shown here. Identical values can stand only once.

How the values were obtained:
DU145 xenograft = experiment: In vivo antitumor activity, DU145 xenograft mouse model; set-up: species or system BALB/c nude mice; conditions: for Tumor volume (Fig. 7a): in cm³ (unit assumed)
22Rv1 cells [1] = experiment: Anti-proliferation activity assay (CCK8, 72 h); type: cell-based, human; conditions: for Relative proliferation rate (%) mean / Relative proliferation rate (%) / optical density: 22Rv1; for Relative proliferation rate (%) / optical density: replicates
DU145 shDYRK2 cells = experiment: Anti-proliferation activity assay (CCK8, 72 h); type: cell-based, human
22Rv1 shDYRK2 cells = experiment: Anti-proliferation activity assay (CCK8, 72 h); type: cell-based, human
22Rv1 cells [2] = experiment: Invasion assay (transwell); type: cell-based, human; conditions: for Cell invasion (cell number): replicates
DYRK1B = biological target: T1, DYRK1B (Homo sapiens, UniProt Q9Y463); experiment: DYRKs kinase activity assay (33P-ATP, DYRKtide substrate): DYRK1B; type: biochemical
T1 construct: purchased Reaction Biology Corporation (assay service)
T1 sequence (Q9Y463 whole entry): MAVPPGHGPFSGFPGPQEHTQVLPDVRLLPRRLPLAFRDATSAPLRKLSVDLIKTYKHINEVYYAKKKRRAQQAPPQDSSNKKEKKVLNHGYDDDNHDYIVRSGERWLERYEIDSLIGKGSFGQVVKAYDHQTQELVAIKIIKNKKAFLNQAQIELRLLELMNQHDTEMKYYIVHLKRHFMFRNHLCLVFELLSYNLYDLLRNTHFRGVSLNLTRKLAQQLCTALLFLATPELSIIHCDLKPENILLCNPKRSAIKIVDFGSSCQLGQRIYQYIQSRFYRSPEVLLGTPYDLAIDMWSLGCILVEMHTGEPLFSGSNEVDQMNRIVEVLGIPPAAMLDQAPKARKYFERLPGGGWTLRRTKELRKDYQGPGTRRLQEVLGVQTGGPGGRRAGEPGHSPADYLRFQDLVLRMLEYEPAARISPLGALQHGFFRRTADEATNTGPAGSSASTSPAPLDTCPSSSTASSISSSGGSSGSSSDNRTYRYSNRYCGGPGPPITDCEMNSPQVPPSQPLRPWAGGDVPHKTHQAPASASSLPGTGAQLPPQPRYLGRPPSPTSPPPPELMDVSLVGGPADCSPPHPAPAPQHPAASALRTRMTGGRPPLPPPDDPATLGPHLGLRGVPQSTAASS

[3] = YK-2-69 (100 mg/kg), Day 45, individual mice, 100 mg/kg
[4] = YK-2-69 (100 mg/kg), Day 49, individual mice, 100 mg/kg
[5] = YK-2-69 (200 mg/kg), Day 1, individual mice, 200 mg/kg
[6] = YK-2-69 (200 mg/kg), Day 5, individual mice, 200 mg/kg
[7] = Homo sapiens, DU-145, read-out: inhibitory rate (%) mean
[8] = Homo sapiens, 22Rv1, read-out: inhibitory rate (%) mean

## CCN1CCN(C(=O)c2ccc(Nc3ncc(F)c(-c4ccc5nc(N(C)C)sc5c4)n3)nc2)CC1 [YK-2-69]
DU145 xenograft; YK-2-69 (100 mg/kg), Day 43, individual mice, 100 mg/kg
  Tumor volume (Fig. 7a): 1.081 and 0.9018 and 1.428 and 0.9736 and 1.066 and 0.6924 and 0.8141 and 1.105 and 1.304 and 1.393
DU145 xenograft; [3]
  Body weight (Fig. 7b): 26.9 (2×) and 25.2 and 26.7 and 26.2 and 26.3 and 25.7 and 26.8 and 25.9 and 26.5
  Tumor volume (Fig. 7a): 1.137 and 0.9183 and 1.533 and 1.03 and 1.104 and 0.7734 and 0.8511 and 1.184 and 1.29 and 1.475
DU145 xenograft; YK-2-69 (100 mg/kg), Day 47, individual mice, 100 mg/kg
  Tumor volume (Fig. 7a): 1.209 and 0.991 and 1.624 and 1.045 and 1.005 and 0.829 and 0.881 and 1.225 and 1.336 and 1.553
DU145 xenograft; YK-2-69 (100 mg/kg), Day 47, individual mice, 100 mg/kg, in g (unit assumed)
  Body weight (Fig. 7b): 27.2 and 25.5 and 26.9 and 26.3 and 26.6 and 25.8 and 27.1 and 26 and 26.8 and 27.4
DU145 xenograft; [4]
  Body weight (Fig. 7b): 27.5 and 25.8 and 27.1 (3×) and 26.6 and 26.9 and 26.1 and 27.3 and 26.2
  Tumor volume (Fig. 7a): 1.289 and 1.004 and 1.711 and 1.157 and 1.055 and 0.8821 and 0.8937 and 1.296 and 1.303 and 1.663
DU145 xenograft; [5]
  Body weight (Fig. 7b): 19.6 and 20.5 and 20.2 (2×) and 19.9 and 20.3 and 20.7 and 21.4 and 21 and 20
  Tumor volume (Fig. 7a): 0.07862 and 0.07877 and 0.07202 and 0.06915 and 0.0797 and 0.06867 and 0.07232 and 0.09045 and 0.0645 and 0.09096
DU145 xenograft; YK-2-69 (200 mg/kg), Day 3, individual mice, 200 mg/kg
  Tumor volume (Fig. 7a): 0.1045 and 0.1116 and 0.1049 and 0.08973 and 0.1165 and 0.1011 and 0.1007 and 0.1453 and 0.08834 and 0.1272
DU145 xenograft; YK-2-69 (200 mg/kg), Day 3, individual mice, 200 mg/kg, in g (unit assumed)
  Body weight (Fig. 7b): 19.9 and 20.6 and 20.5 and 20.2 and 20.7 and 21.5 and 21.3 and 20.3 and 20.1
DU145 xenograft; YK-2-69 (200 mg/kg), Day 3, individual mice, in g (unit assumed)
  Body weight (Fig. 7b): 21
DU145 xenograft; [6]
  Body weight (Fig. 7b): 20.2 and 20.9 and 20.8 and 20.4 and 21.1 (2×) and 21.8 and 21.6 and 20.3 and 20.5
  Tumor volume (Fig. 7a): 0.1323 and 0.1488 and 0.1486 and 0.1179 and 0.1568 and 0.1343 and 0.1497 and 0.2074 and 0.1183 and 0.1702
22Rv1 cells [1]; 0.0049 uM
  Relative proliferation rate (%) mean: 8.6252%
  Relative proliferation rate (%): 6.856% and 10.4024% and 8.617%
  optical density: 0.951 and 0.913 and 0.912
22Rv1 cells [1]; 0.078 uM
  Relative proliferation rate (%) mean: 28.6346%
  Relative proliferation rate (%): 32.9089% and 24.3376% and 28.6573%
  optical density: 0.685 and 0.771 and 0.712
22Rv1 cells [1]; 0.3125 uM
  Relative proliferation rate (%) mean: 33.639%
  Relative proliferation rate (%): 36.3369% and 30.9127% and 33.6673%
  optical density: 0.65 and 0.704 and 0.662
22Rv1 cells [1]; 1.25 uM
  Relative proliferation rate (%) mean: 55.2648%
  Relative proliferation rate (%): 58.57% and 51.9136% and 55.3106%
  optical density: 0.423 and 0.49 and 0.446
22Rv1 cells [1]; 5 uM
  Relative proliferation rate (%) mean: 68.233%
  Relative proliferation rate (%): 72.38% and 64.0824% and 68.2365%
  optical density: 0.282 and 0.366 and 0.317
22Rv1 cells [1]; 20 uM
  Relative proliferation rate (%) mean: 73.6982%
  Relative proliferation rate (%): 76.5916% and 70.7556% and 73.7475%
  optical density: 0.239 and 0.298 and 0.262
22Rv1 cells [1]; 80 uM
  Relative proliferation rate (%) mean: 89.3325%
  Relative proliferation rate (%): 93.7316% and 84.8871% and 89.3788%
  optical density: 0.064 and 0.154 and 0.106
22Rv1 cells [1]; 22Rv1 cells
  inhibitory activity against proliferation (in words): potent inhibitory activity
DU145 shDYRK2 cells; DU145 shDYRK2 cells, even at 80 μM
  inhibitory activity on proliferation (in words): almost no inhibitory activity
DU145 shDYRK2 cells; Homo sapiens, DU-145, DU145 KD, inhibitor 0.625 uM, read-out: inhibitory rate (%) mean
  inhibition at 0.625 µM: 7.98%
DU145 shDYRK2 cells; Homo sapiens, DU-145, DU145 KD, inhibitor 1.25 uM, read-out: inhibitory rate (%) mean
  inhibition at 1.25 µM: 10.3%
DU145 shDYRK2 cells; Homo sapiens, DU-145, DU145 KD, inhibitor 5 uM, read-out: inhibitory rate (%) mean
  inhibition at 5 µM: 13.5%
DU145 shDYRK2 cells; Homo sapiens, DU-145, DU145 KD, inhibitor 10 uM, read-out: inhibitory rate (%) mean
  inhibition at 10 µM: 15.4%
DU145 shDYRK2 cells; Homo sapiens, DU-145, DU145 KD, inhibitor 40 uM, read-out: inhibitory rate (%) mean
  inhibition at 40 µM: 17.2%
DU145 shDYRK2 cells; Homo sapiens, DU-145, DU145 KD, inhibitor 80 uM, read-out: inhibitory rate (%) mean
  inhibition at 80 µM: 18.1%
DU145 shDYRK2 cells; Homo sapiens, DU-145, DU145 shDYRK2 cells, read-out: IC50 antiproliferative activity
  IC50: > 80 µM
DU145 shDYRK2 cells; [7]
  inhibition at 2.5 µM: 11.8%
  inhibition at 20 µM: 16%
22Rv1 shDYRK2 cells; 22Rv1 shDYRK2 cells, even at 80 μM
  inhibitory activity on proliferation (in words): almost no inhibitory activity
22Rv1 shDYRK2 cells; [8]
  inhibition at 10 µM: 19.7%
  inhibition at 2.5 µM: 17.3%
  inhibition at 20 µM: 26.3%
22Rv1 shDYRK2 cells; Homo sapiens, 22Rv1 KD, inhibitor 0.625 uM, read-out: inhibitory rate (%) mean
  inhibition at 0.625 µM: 9.79%
22Rv1 shDYRK2 cells; Homo sapiens, 22Rv1 KD, inhibitor 1.25 uM, read-out: inhibitory rate (%) mean
  inhibition at 1.25 µM: 14.3%
22Rv1 shDYRK2 cells; Homo sapiens, 22Rv1 KD, inhibitor 5 uM, read-out: inhibitory rate (%) mean
  inhibition at 5 µM: 19.2%
22Rv1 shDYRK2 cells; Homo sapiens, 22Rv1 KD, inhibitor 40 uM, read-out: inhibitory rate (%) mean
  inhibition at 40 µM: 31.8%
22Rv1 shDYRK2 cells; Homo sapiens, 22Rv1 KD, inhibitor 80 uM, read-out: inhibitory rate (%) mean
  inhibition at 80 µM: 43.8%
22Rv1 shDYRK2 cells; Homo sapiens, 22Rv1 shDYRK2 cells, read-out: IC50 antiproliferative activity
  IC50: > 80 µM
22Rv1 cells [2]; 22Rv1, 0.5 μM
  Cell invasion (cell number): 990 cell number and 970 cell number and 1020 cell number
22Rv1 cells [2]; 22Rv1, 1 μM
  Cell invasion (cell number): 730 cell number and 680 cell number and 710 cell number
22Rv1 cells [2]; 22Rv1, 2 μM
  Cell invasion (cell number): 520 cell number and 490 cell number and 509 cell number
22Rv1 cells [2]; 22Rv1 cells, dose-dependent
  invasion (in words): remarkably inhibited the migration and invasion
DYRK1B
  IC50: 0.542 µM
DYRK1B; 0.000762079 µM, duplicates
  % Inhibition DYRK1B: 3.06% and 6.85%
DYRK1B; 0.00228624 µM, duplicates
  % Inhibition DYRK1B: 3.24%
  inhibition at 0.00228624 µM: 5.73%
DYRK1B; 0.00685871 µM, duplicates
  % Inhibition DYRK1B: 11.00%
  inhibition at 0.00685871 µM: 7.22%
DYRK1B; 0.0205761 µM, duplicates
  % Inhibition DYRK1B: 13.48%
  inhibition at 0.0205761 µM: 9.47%
DYRK1B; 0.0617284 µM, duplicates
  % Inhibition DYRK1B: 24.87%
  inhibition at 0.0617284 µM: 26.4%
DYRK1B; 0.185185 µM, duplicates
  % Inhibition DYRK1B: 44.86%
  inhibition at 0.185185 µM: 44.6%
DYRK1B; 0.555556 µM, duplicates
  % Inhibition DYRK1B: 57.04%
  inhibition at 0.555556 µM: 57.3%
DYRK1B; 1.66667 µM, duplicates
  % Inhibition DYRK1B: 62.26%
DYRK1B; 5 µM, duplicates
  % Inhibition DYRK1B: 64.81%
  inhibition at 5 µM: 65.1%
DYRK1B; read-out: % Inhibition DYRK1B, 1.66667 µM, duplicates
  inhibition at 1.66667 µM: 62.7%
DYRK1B; vs DYRK2
  selectivity over DYRK1B: 60 fold
